The record followed here is ChEMBL document CHEMBL5614440, “Development of Novel Indole-Based Covalent Inhibitors of TEAD as Potential Antiliver Cancer Agents” (J Med Chem, 2024).

SMILES strings stand for the structures.

Usually IC50 stands for the concentration at which inhibition is half-maximal. Broadly, the inhibition is how much of the control response was suppressed.

The test system of series [1] is Huh-7. The series is described as follows: Antiproliferative activity against human Huh-7 cells incubated for 3 days by CCK8 assay. Type of series: functional, cell-based. The settings on record: Huh-7, 72 h. (In general: Tetrazolium assays rely on reduction of a dye to a coloured formazan, in cell work by metabolically active cells.)
For series [2], the system named is Huh-7. As to the kind of experiment: Inhibition of TEAD transcription in human Huh-7 cells transfected with 8xGTIIC-luciferase assessed as downregulation of CTGF protein expression by Western blotting analysis. The settings on record: dose 1.25-15 µM. Type of series: cell-based. Background: A western blot detects proteins with antibodies after separation by electrophoresis.

The test system of series [3] is HEK293T. As to the kind of experiment: Inhibition of TEAD (unknown origin) expressed in HEK293T cells transfected with 8xGTIIC-luciferase at 10 uM by dual luciferase reporter assay relative to control. Type of series: cell-based. The settings on record: Homo sapiens. For orientation: A reporter such as luciferase makes a cellular process visible.
The subject of series [4] is Huh-7. The series is described as follows: (§1) Inhibition of TEAD transcription in human Huh-7 cells transfected with 8xGTIIC-luciferase by dual luciferase reporter assay. Type of series: cell-based.
The test system of series [5] is Huh-7. As to the kind of experiment: Antitumor activity against human Huh-7 cells xenografted in NSG mouse assessed as tumor growth inhibition at 100 mg/kg, po administered every 3 days for 24 days and measured every 3 days. The format is functional. The settings on record: Huh-7, 576 h, time 24 day, read-out: TGI.
The nature of series [6]: as §1. The format is cell-based.
The subject of series [7] is Huh-7. As to the kind of experiment: Inhibition of TEAD transcription in human Huh-7 cells transfected with 8xGTIIC-luciferase assessed as downregulation of CTGF mRNA expression incubated for 24 hrs by RT-PCR analysis. The format is cell-based. The settings on record: dose 1.25-10 µM.
Series [8] in a line: Antiproliferative activity against mouse AML12 cells at 10 uM incubated for 3 days by CCK8 assay. The settings on record: time 3 day. Type of series: toxicity, cell-based.

Compound `O=C(CCl)c1c[nH]c2cc(Cl)c(OCc3ccc(C(F)(F)F)c(F)c3)cc12` came in with an IC50 in series [1] of 1.8 µM.

As for `O=C(CCl)NCc1c[nH]c2cc(Cl)c(OCc3ccccc3)cc12`, the inhibition entry in series [2] was “Dose-Dependent Effect”; in series [3], 97.8%; in series [4] it was “Dose-Dependent Effect”. 1.2 µM corresponded to half-maximal inhibition in series [1] (IC50).

Regarding `O=C(CCl)c1c[nH]c2ccc(OCc3ccccc3)cc12`, the inhibition in series [3] is 20.5%. The same compound yielded an IC50 in series [1] of 10.5 µM.

Consider `C=CC(=O)NCc1c[nH]c2cc(Cl)c(OCc3cccc4ccccc34)cc12`, for which, in series [3], the inhibition was 10.6%. For the same compound, in series [1], the IC50 came to 14.4 µM.

`C=CC(=O)NCc1c[nH]c2cc(Cl)c(OCc3ccc4ccccc4c3)cc12` returned an inhibition in series [3] of 1.5%. Moreover, in series [1], the IC50 stood at 30.2 µM.

Turning to `CNC(=O)c1cc(Oc2ccc(NC(=O)Nc3ccc(Cl)c(C(F)(F)F)c3)cc2)ccn1` [SORAFENIB], the inhibition in vivo at 100 mg/kg in series [5] amounted to 76%.

Turning to `N#C/C(=C\c1c[nH]c2cc(Cl)c(OCc3ccc4ccccc4n3)cc12)C(N)=O`, the IC50 in series [1] was determined as 68.7 µM.

For `O=C(CCl)NCc1c[nH]c2cc(Cl)c(OCc3cccc4ccccc34)cc12`, the inhibition in series [3] amounted to 81.5%. For the same compound, in series [1], the IC50 came to 0.8 µM.

Regarding `O=C(CCl)NCc1c[nH]c2cc(Cl)c(OCc3ccc4ccccc4c3)cc12`, in series [3], the inhibition was determined as 67.4%. In addition, in series [1], half-maximal inhibition (IC50) required 5.7 µM.

On to `N#C/C(=C\c1c[nH]c2cc(Cl)c(OCc3cccc(C(F)(F)F)c3)cc12)C(N)=O`, for which, in series [3], the inhibition came to 59.7%. Besides, half-maximal inhibition in series [1] (IC50) required 5.2 µM.

Turning to `N#C/C(=C\c1c[nH]c2cc(Cl)c(OCC3CCC(F)(F)CC3)cc12)C(N)=O`, the inhibition in series [3] came to 60.1%. This compound gave an IC50 in series [1] of 5.3 µM.

Turning to `COc1cc2[nH]cc(C(=O)CCl)c2cc1OCc1ccccc1`, the inhibition in series [3] was 53.7%. In series [1], the IC50 is 3.8 µM.

In series [3], `COc1cc2[nH]cc(C(=O)CCl)c2cc1OCc1cccc2ccccc12` gave an inhibition of 64.5%. For the same compound, 2.5 µM corresponded to half-maximal inhibition in series [1] (IC50).

Take `O=C(CCl)c1c[nH]c2cc(Cl)c(OCc3ccc4ccccc4c3)cc12`: the inhibition result in series [2] was “Dose-Dependent Effect”; in series [3], 95.6%; in series [7] it was “Dose-Dependent Effect”. Further, the IC50 in series [6] turned out to be 0.87 µM; in series [1], 2.3 µM.

As for `N#C/C(=C\c1c[nH]c2cc(Cl)c(OCc3ccc4ccccc4c3)cc12)C(N)=O`, the inhibition in series [3] was found to be 47.3%. In addition, half-maximal inhibition in series [1] (IC50) was put at 4.1 µM.

Consider `COc1cc2[nH]cc(C(=O)CCl)c2cc1OCc1ccc2ccccc2c1`, for which, in series [3], the inhibition is 93.9%. The compound further registered an IC50 in series [1] of 2.4 µM.

`O=C(CCl)c1c[nH]c2cc(Cl)c(OCc3ccccc3)cc12`: the inhibition in series [3] is 74.6%. The compound also had an IC50 in series [1] of 2.7 µM.

In series [1], `N#C/C(=C\c1c[nH]c2cc(Cl)c(OCc3ccccc3)cc12)C(N)=O` came in with an IC50 above 50 µM.

The compound `O=C(CCl)c1c[nH]c2cc(Cl)c(OCc3ccc(C(F)(F)F)cc3)cc12` registered an IC50 in series [1] of 16.9 µM.

`C=C(CN(C)C)C(=O)NCc1c[nH]c2cc(Cl)c(OCc3ccccc3)cc12`: the inhibition in series [3] amounted to 71.8%. The compound also came in with a concentration for half-maximal inhibition (IC50) in series [1] of 2 µM.

In series [3], `O=C(CCl)NCc1c[nH]c2cc(Cl)c(OCc3cccc(C(F)(F)F)c3)cc12` displayed an inhibition of 47.9%. In series [1], the IC50 turned out to be 8.3 µM.

In turn, `Clc1cc2[nH]ccc2cc1OCc1ccccc1` had an inhibition in series [3] of 68.3%. Further, the IC50 in series [6] came to 5 µM; in series [1], 32.5 µM. The compound further showed an inhibition at 72 h, 10 µM in series [8] of 20.3%.

In turn, `C=CC(=O)NCc1c[nH]c2cc(Cl)c(OCc3ccccc3)cc12` registered an IC50 in series [1] above 50 µM.

In series [3], `O=C(CCl)c1c[nH]c2cc(Cl)c(OCc3cccc4ccccc34)cc12` had an inhibition of 69.4%. In series [1], this compound gave an IC50 of 1.6 µM.

On to `O=C(CCl)c1c[nH]c2ccc(OCc3ccc4ccccc4c3)cc12`, for which the inhibition in series [3] was determined as 5.3%. In series [1], this compound came in with an IC50 above 20 µM.
